Columns and labels:
[1] = system: venetoclax-resistant MOLM-13 cell lines; assay: Drug treatment IC50 / cell viability (CellTiter Glo) and synergy, venetoclax-resistant MOLM-13 cell lines; assay type: cell-based; conditions: Homo sapiens, cell lines developed by continuous exposure to venetoclax for 3 weeks
Procedure: (§1) Cell lines were plated in 96 well plates and exposed to the indicated compounds at various concentration ranges with a minimum of three technical replicates per concentration per cell line. Cell viability was measured with the CellTiter Glo reagent (Promega) as per manufacturer's instructions. Absolute viability values were converted to percentage viability versus DMSO control treatment, and then non-linear fit of log (inhibitor) versus response (three parameters) was performed in GraphPad Prism v7.0 to obtain an IC50 values. Two-dimensional heatmaps of Synergy Scores from Bliss synergy models were generated based on Demidenko et al., 2019^83.
The efficacy of SM09419 across a spectrum of human AML cell lines was tested. […] Three independent venetoclax-resistant MOLM-13 cell lines following continuous exposure to venetoclax for 3 weeks were developed. […] These findings were further extended to patient-derived xenograft (PDX) models of AML from patients with de novo resistance to venetoclax combination regimens (5-azacytidine or low-dose cytarabine) (FIGS. 6C-6D). Following xenotransplantation from two individual venetoclax-resistant patients into NSGS mice, disease engraftment with >10% human hCD45^+ hCD34^+ hCD38^+ cells was detected and mice were exposed to SM09419 (25 mg/kg) or vehicle administered orally and daily for 3 weeks.

MOLM-13 parental cells = assay: Drug treatment IC50 / cell viability (CellTiter Glo) and synergy, MOLM-13 parental cells; assay type: cell-based; conditions: Homo sapiens
Procedure: as §1

## CC1(C)CCC(CN2CCN(c3ccc(C(=O)NS(=O)(=O)c4ccc(NCC5CCOCC5)c([N+](=O)[O-])c4)c(Oc4cnc5[nH]ccc5c4)c3)CC2)=C(c2ccc(Cl)cc2)C1 [venetoclax]
[1]
  IC50: > 99 nM
MOLM-13 parental cells
  IC50: ~15 nM

— patent publication US12661352B2, “Combination therapy with CLK/DYRK inhibitors and BCL2 inhibitors to treat leukemia” (Memorial Sloan-Kettering Cancer Center, priority 2023, dated 2026)
